Results as given in patent publication US9096594B2, “Kinase inhibitors and methods of use thereof” (priority 2012, dated 2015).
Converted amounts (≈) assume the structure as drawn. Like-named read-outs stand apart in the source and are kept apart here. Blank lines part the entries; values can stand above or below the compound they belong to.

Assays:
GSK3β [1] = target: T1, GSK3β (Homo sapiens (Human), UniProt P49841); experiment: biochemical
Procedure: (§1) Human GSK3β as a GST fusion expressed in baculoviral system was purchased from BPS Bioscience (San Diego, Calif.). […] Reactions were incubated at room temperature for 60 minutes. 2.5 μL/well of ADP-Glo (Promega, V9103) was added with BioRAPTR, and incubated at room temperature for 40 minutes followed by addition of 5 μL/well of ADP-Glo detection reagent (Promega, V9103) with Combi nL (Thermo, Waltham, Mass.) and incubation at room temperature for 30 minutes. The plates were read on a ViewLux (PerkinElmer, Waltham, Mass.) for luminescence. Data were scaled using the positive and neutral controls and fitted for IC50 as described below.
(§2) 100 mL/well compounds were pinned. […] Incubated at room temperature for 60 minutes. Added 20 μL/well of ADP-glo (Promega, V9103) with Combi, and incubated at room temperature for 40 minutes. Added 40 μL/well of ADP-glo (Promega, V9103) with Combi, incubated at room temperature for 30 minutes. Read on Envision for luminescence.

panel of 311 kinases = experiment: Kinome-wide selectivity profile (Carna Biosciences, 311 kinases); type: biochemical
Procedure: (§3) Briefly, a selection of compounds was screened against a panel of kinases at a single concentration of 10 μM. […] This was completed utilizing one of two assays depending on the kinase being examined.
(§4) Test compounds were dissolved in and diluted with dimethylsulfoxide (DMSO) to generate a 100× sample solution. These were then diluted to 4× sample solutions in assay buffer to make the final test compound solutions. Reference compounds for assay control were prepared similarly.
(§5) A solution of IMAP binding reagent (IMAP Screening Express kit; Molecular Devices) (60 μL) was added to each well and incubated for 30 minutes.
(§6) A solution of termination buffer (QuickScout Screening assist MSA; Carna Biosciences) (60 μL) was added to each well. The entire reaction mixture was then applied to a LabChip3000 system (Caliper Life Science) and the product and substrate peptide peaks were separated and quantified.

[2] = mouse plasma, 5 hours
Procedure: Plasma stability was determined at 37° C. at 5 hours in both human and mouse plasma. […] Compounds were incubated at 37° C. for 5 hours with a 250 rpm orbital shake with time points taken at 0 and 5 hours.

[3] = system: phospho-Tau (Ser199) in SH-SY5Y cells; experiment: Tau phosphorylation (Ser199) ELISA in SH-SY5Y cells; type: cell-based, human; settings: Homo sapiens, SH-SY5Y, read-out: p-Tau (μM)
Procedure: Tau Phosphorylation and Total Tau Assay
SH-SY5Y cells were maintained in DMEM supplemented with 10% heat-inactivated FBS and 1% penicillin-streptomycin (Invitrogen) unless otherwise stated. ELISA kits for phospho-Tau (Ser199) and total Tau detection were purchased from Invitrogen (KHB0041, and KHB7041 respectively). Briefly, SH-SY5Y cells were seeded at 50,000 cells/200 μL/well in 96 well plates and after overnight incubation, treated with various doses of chemical compounds at 0.2 μL/well. The next day cells were washed with PBS twice before being lysed in 100 μL Lysis buffer/well. […]
A standard protocol using an immunoassay kit to quantify total Tau protein and phospho-Tau (Ser199) protein in SH-SY5Y human neuroblastoma cells was employed. […]
Well strips were warmed and inserted into the frame. […] Samples were loaded to each well that would be analyzed for total Tau, 85 μl standard diluent buffer and 15 μl cell lysate were added. To each well that will be analyzed for pTau (Ser199) 50 μl standard diluent buffer+50 μl cell lysate were added. […] Anti-total Tau was added to wells being analyzed for total Tau, anti-pTau (Ser199) was added to wells being analyzed for pTau (Ser199), and plates were tapped gently on the side to mix. […] Absorbance of each well was read at 450 nm (within 2 hours of adding stop solution).

CDK2/CycE1 = CDK2/CycE1 (Homo sapiens (Human), UniProt P24941); experiment: Carna Biosciences kinase assay, CDK2/CycE1; type: biochemical; settings: read-out: % Inhibition at 10 μM, CDK2/CycE1
Procedure: as §3, §4, §5, §6
(§7) The assay utilized was identical to that of the single point inhibitory activity determination (MSA) but run in dose response. […] A solution of termination buffer (QuickScout Screening assist MSA; Carna Biosciences) (60 μL) was added to each well. The entire reaction mixture was then applied to a LabChip3000 system (Caliper Life Science) and the product and substrate peptide peaks were separated and quantified.

GSH stability = type: physicochemical; settings: 48 hours
Procedure: Stability was determined in the presence of PBS pH […] and 50 μM glutathione with 0.1% DMSO. Each compound was prepared in duplicate on six separate plates and allowed to equilibrate at room temperature with a 250 rpm orbital shake for 48 hours. One plate was removed at each time point (0, 2, 4, 8, 24, and 48 hours). […] Additionally, to the remaining material at each time point, acetonitrile was added to force dissolution of compound (to test for recovery of compound). An aliquot of this was also analyzed by UPLC-MS.

GSK3α [4] = target: T2, GSK3α (Homo sapiens (Human), UniProt P49840); experiment: biochemical
T2 sequence (P49840 whole entry): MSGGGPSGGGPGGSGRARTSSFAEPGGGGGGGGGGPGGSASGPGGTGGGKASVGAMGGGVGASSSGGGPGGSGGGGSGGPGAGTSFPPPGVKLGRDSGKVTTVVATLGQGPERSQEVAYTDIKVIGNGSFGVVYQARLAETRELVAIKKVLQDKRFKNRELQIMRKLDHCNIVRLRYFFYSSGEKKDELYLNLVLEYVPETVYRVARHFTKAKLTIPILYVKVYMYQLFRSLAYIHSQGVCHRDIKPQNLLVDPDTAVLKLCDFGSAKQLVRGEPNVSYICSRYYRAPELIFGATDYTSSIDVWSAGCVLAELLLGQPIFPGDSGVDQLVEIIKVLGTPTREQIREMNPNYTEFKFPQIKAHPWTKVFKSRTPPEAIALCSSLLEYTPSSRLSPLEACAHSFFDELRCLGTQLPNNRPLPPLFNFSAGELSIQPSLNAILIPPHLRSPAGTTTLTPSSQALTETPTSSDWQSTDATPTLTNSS

GSK3β [5] = target: T1, GSK3β
Procedure: GSK3β Microfluidic Mobility-Shift Assay
Reactions were terminated by the addition of 10 mM EDTA. Substrate and product were separated electrophoretically and fluorescence intensity of the substrate and product was determined by Labchip EZ Reader II (Caliper Life Sciences, MA). The kinase activity was measured as percent conversion. The reactions were performed in duplicate for each sample. […] The results were analyzed by Genedata Assay Analyzer. The percent inhibition was plotted against the compound concentration and the IC50 value was determined from the logistic dose-response curve fitting.

[6] = system: β-catenin nuclear translocation in U2-OS cells; experiment: β-Catenin nuclear localization assay; type: cell-based
Procedure: β-Catenin Nuclear Localization Assay
U2-OS cells stably expressing two complimentary β-galactosidase fragments (one part on β-Catenin and the other constitutively expressed in the cell nucleus) were maintained in DMEM F12 supplemented with 10% FBS. When β-catenin translocates to the nucleus, the complimentary fragments form a complete β-galactosidase, the amount of which is then quantified by β-galactosidase activity (DiscoveRx). Cells were seeded in a 384-well CulturPlate (Perkin Elmer, Boston, Mass.) with 10,000 per well in 20 μL DMEM F12 containing 10% FCS, 100 U/ml penicillin and 100 μg/mL streptomycin. After overnight incubation at 37° C., cells were stimulated with 100 mL test compound/well and then returned to the incubator for 6 h. Cells were disrupted using 12 μL substrate-containing lysis buffer from the PathHunter Detection Kit in the formulation specified by the supplier (DiscoveRx). Plates were incubated in the dark for 1 h at room temperature before measurement of P3-galactosidase activity (luminescence) on an EnVision plate reader (PerkinElmer, Waltham, Mass.).

CDK2/CycA2 = CDK2/CycA2 (Homo sapiens (Human), UniProt P24941); experiment: Carna Biosciences kinase assay, CDK2/CycA2; type: biochemical; settings: read-out: % Inhibition at 10 μM, CDK2/CycA2
Procedure: as §3, §4, §5, §6, §7

in vitro = settings: mouse, mouse plasma, pH 7.4
Procedure: Plasma protein binding was determined by equilibrium dialysis using the Rapid Equilibrium Dialysis (RED) device (Pierce Biotechnology, Rockford, Ill.) for both human and mouse plasma. […] Compounds were incubated at 37° C. for 5 hours with a 250 rpm orbital shake.

SH-SY5Y cells = experiment: Cellular toxicity in SH-SY5Y cells; settings: highest testing concentration of 30 μM
Procedure: Biochemical characterization of these synthesized compounds were assayed against GSK3β and CDK5/p25, with CDK5/p25 serving as a counter target of GSK3β selectivity. […] The effects of these compounds on survival of SH-SY5Y pathophysiology cells were also monitored.

[7] = system: TCF/LEF reporter in HEK293-pBARL cells; settings: read-out: TCF/LEF EC50
Procedure: (§8) HEK293-pBARL cells were derived from HEK293 cells and they stably expressed a firefly-luciferase reporter gene driven by a promoter containing 12 copies of TCF/LEF binding sequences. These cells were maintained in DMEM and supplemented with 10% FBS and 1% penicillin-streptomycin (Invitrogen). Reporter gene assays were conducted in anti-biotic free media. […] These cells also contained a renilla-luciferase reporter gene driven by the ubiquitous EF1α promoter as a control. HEK293-pBarl reporter cell lines were seeded into 384-well culture plates (Corning) at 6000 cells/well. 24 hours after plating, cells were treated overnight with relevant compounds and assayed using DualGlo assay kit (Promega). Luminescent intensities were read by EnVision (PerkinElmer, Waltham, Mass.). Firefly luciferase intensity is normalized by renilla luciferase intensity.
(§9) Cells were cultured in 384 well plates to appropriate density (40 μl total plating volume). 24 hours after plating, cells were treated with 100 nl compounds. 24 hours after incubation with compounds (48 hours after plating), assay reagents were prepared by mixing Luciferase Assay solution with Luciferase substrate and Stop & Glo solution to Stop & Glo substrate (extra reagents can be aliquoted and frozen for future use and are stable for at least one freeze/thaw cycle). […] The plate was spun down and 10 minutes were allowed for signal stabilization. Luciferase signal on the Perkin Elmer EnVision using the following parameters: Distance between plate & detector (mm)=0.2; Measurement time(s)=0.1; Glow (CT2) correction factor=0. Once the initial data is secure, a volume of Stop & Glo was added equal to each well equal to the volume of Luciferase reagent added above (If 10 μl Luciferase Reagent was added, 10 μl Stop & Glo was also added). The plate was spun down and 10 minutes were allowed for signal stabilization. The plate was read on the EnVision using the same parameters detailed above.

[8] = system: TCF/LEF reporter in HEK293-pBARL cells; experiment: cells
Procedure: as §8, §9

[9] = Plasma protein binding (equilibrium dialysis), human plasma; type: in vitro ADME
Procedure: Plasma protein binding was determined by equilibrium dialysis using the Rapid Equilibrium Dialysis (RED) device (Pierce Biotechnology, Rockford, Ill.) for both human and mouse plasma. Each compound was prepared in duplicate at 5 μM in plasma (0.95% acetonitrile, 0.05% DMSO) and added to one side of the membrane (200 μl) with PBS pH 7.4 added to the other side (350 μl). Compounds were incubated at 37° C. for 5 hours with a 250 rpm orbital shake.

[10] = M (mouse)
GSK3α [11] = target: T2, GSK3α
physchem = settings: phosphate buffered saline (PBS) with 1% DMSO, 23 °C, pH 7.4, aqueous buffer, kinetic from dmso stock
PBS stability = type: physicochemical; settings: 48 hours of incubation, acetonitrile recovery
Procedure: Stability was determined in the presence of PBS pH 7.4 with 0.1% DMSO. Each compound was prepared in duplicate on six separate plates and allowed to equilibrate at room temperature with a 250 rpm orbital shake for 48 hours. One plate was removed at each time point (0, 2, 4, 8, 24, and 48 hours). […] Additionally, to the remaining material at each time point, acetonitrile was added to force dissolution of compound (to test for recovery of compound). An aliquot of this was also analyzed by UPLC-MS.

GSK3β [12] = target: T1, GSK3β; experiment: biochemical; remark: listed apart in the source
GSK3β [13] = target: T1, GSK3β; remark: listed apart in the source
Procedure: as §1, §2

LIMK1 = LIMK1 (Homo sapiens (Human), UniProt P53667); experiment: Carna Biosciences kinase assay, LIMK1; type: biochemical
LIMK1, sequence (P53667 whole entry): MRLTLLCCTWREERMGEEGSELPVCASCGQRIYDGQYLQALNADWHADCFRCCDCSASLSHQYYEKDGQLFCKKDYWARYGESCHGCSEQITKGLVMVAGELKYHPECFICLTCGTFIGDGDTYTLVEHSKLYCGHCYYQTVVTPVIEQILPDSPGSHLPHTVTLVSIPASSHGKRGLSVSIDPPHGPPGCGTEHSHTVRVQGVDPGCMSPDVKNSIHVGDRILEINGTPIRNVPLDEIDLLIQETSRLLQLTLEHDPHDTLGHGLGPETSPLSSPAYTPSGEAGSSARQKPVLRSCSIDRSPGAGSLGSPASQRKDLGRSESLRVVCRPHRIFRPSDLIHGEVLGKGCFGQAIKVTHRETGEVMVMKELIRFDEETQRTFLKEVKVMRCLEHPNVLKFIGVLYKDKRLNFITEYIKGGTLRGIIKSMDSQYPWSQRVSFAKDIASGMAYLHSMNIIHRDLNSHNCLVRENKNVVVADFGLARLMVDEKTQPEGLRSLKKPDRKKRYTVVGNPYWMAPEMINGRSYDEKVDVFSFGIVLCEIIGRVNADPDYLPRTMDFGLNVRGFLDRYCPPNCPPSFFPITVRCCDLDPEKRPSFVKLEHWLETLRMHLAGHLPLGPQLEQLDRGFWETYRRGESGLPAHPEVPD
Procedure: as §3, §4, §5, §6

CDK9 = CDK9 (Homo sapiens (Human), UniProt P50750); experiment: Carna Biosciences kinase assay, CDK9; type: biochemical
CDK9, sequence (P50750 whole entry): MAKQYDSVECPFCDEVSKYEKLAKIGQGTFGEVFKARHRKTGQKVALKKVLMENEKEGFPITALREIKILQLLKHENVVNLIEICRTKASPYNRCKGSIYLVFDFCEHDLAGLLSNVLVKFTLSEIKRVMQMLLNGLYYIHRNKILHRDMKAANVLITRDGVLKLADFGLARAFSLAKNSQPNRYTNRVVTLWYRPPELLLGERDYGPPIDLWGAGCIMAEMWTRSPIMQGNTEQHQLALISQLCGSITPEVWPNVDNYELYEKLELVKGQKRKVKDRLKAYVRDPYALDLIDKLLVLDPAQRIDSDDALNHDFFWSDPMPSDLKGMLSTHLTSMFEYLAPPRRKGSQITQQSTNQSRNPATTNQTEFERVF
CDK9, sequence (O60563 whole entry partner): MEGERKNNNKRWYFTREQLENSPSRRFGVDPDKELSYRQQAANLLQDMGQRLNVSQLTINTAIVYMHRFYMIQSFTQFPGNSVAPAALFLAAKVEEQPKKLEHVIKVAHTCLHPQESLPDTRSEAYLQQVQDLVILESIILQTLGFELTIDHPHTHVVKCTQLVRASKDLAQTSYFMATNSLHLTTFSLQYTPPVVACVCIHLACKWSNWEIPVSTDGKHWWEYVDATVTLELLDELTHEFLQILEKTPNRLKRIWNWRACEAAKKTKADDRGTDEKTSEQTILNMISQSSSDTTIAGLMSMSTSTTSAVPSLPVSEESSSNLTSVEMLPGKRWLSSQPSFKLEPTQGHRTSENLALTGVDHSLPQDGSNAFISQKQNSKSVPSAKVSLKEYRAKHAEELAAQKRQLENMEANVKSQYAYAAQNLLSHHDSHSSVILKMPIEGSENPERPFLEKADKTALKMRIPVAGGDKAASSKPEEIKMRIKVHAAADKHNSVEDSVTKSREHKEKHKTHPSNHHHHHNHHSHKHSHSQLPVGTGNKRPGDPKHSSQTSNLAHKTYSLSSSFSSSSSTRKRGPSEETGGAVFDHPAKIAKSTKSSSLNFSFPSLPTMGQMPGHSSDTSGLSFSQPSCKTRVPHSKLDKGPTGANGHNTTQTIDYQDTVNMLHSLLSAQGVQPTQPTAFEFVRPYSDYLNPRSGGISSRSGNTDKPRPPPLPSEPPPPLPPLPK
Procedure: as §3, §4, §5, §6

Erk5 = Erk5 (Homo sapiens (Human), UniProt Q13164); experiment: Carna Biosciences kinase assay, Erk5; type: biochemical
Erk5, sequence (Q13164 whole entry): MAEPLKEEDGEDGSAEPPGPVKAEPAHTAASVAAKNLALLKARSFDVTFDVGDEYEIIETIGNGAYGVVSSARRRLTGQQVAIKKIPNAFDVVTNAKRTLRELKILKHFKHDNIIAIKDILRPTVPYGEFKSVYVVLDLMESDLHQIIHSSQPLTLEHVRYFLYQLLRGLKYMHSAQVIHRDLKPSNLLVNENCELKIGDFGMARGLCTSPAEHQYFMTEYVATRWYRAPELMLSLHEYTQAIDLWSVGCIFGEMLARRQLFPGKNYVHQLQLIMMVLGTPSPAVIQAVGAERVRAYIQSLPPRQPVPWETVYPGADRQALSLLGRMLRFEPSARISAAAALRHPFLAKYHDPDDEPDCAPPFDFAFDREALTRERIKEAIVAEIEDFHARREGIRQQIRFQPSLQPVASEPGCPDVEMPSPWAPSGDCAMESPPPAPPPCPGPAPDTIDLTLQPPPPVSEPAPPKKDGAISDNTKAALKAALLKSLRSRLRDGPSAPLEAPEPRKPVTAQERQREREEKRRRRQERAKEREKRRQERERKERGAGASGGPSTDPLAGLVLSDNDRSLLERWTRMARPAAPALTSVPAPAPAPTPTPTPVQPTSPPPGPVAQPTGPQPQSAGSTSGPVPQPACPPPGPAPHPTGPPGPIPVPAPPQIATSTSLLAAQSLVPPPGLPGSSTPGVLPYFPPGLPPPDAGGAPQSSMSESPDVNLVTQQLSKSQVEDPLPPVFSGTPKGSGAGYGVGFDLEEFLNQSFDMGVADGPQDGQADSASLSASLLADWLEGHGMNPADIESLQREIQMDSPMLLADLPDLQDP
Procedure: as §3, §4, §5, §6

PLK1 = PLK1 (Homo sapiens (Human), UniProt P53350); experiment: Carna Biosciences kinase assay, PLK1; type: biochemical
PLK1, sequence (P53350 whole entry): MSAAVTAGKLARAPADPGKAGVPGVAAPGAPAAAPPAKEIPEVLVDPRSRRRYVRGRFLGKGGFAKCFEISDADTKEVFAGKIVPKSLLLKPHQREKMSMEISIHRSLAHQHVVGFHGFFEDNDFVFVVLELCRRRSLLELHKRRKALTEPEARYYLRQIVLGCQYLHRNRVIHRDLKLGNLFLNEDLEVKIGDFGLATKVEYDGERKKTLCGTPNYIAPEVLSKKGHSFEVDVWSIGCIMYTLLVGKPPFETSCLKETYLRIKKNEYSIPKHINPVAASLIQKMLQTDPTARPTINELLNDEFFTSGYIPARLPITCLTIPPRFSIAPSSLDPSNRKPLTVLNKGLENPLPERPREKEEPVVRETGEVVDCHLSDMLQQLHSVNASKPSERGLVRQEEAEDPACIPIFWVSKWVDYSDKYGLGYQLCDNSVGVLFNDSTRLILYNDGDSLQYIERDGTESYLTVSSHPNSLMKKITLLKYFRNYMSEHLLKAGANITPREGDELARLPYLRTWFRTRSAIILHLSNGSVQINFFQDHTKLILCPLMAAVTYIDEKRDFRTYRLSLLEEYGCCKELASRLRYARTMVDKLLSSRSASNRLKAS
Procedure: as §3, §4, §5, §6

CDK5 = CDK5 (Homo sapiens (Human), UniProt Q00535); experiment: Carna Biosciences kinase assay, CDK5; type: biochemical
CDK5, sequence (Q00535 whole entry): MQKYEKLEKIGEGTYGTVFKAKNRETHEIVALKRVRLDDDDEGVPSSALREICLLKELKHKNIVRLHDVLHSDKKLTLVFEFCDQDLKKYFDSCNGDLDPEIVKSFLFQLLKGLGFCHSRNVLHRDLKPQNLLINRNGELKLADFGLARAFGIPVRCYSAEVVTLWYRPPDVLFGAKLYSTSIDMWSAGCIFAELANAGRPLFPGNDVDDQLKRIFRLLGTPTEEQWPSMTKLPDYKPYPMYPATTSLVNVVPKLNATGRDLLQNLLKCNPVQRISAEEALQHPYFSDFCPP
CDK5, sequence (Q15078 99-307 partner): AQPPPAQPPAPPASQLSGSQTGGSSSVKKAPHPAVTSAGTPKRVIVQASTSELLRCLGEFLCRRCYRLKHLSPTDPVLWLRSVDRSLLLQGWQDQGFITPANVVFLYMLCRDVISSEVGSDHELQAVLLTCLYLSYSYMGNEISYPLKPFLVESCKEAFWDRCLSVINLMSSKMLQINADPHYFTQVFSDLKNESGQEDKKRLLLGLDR
Procedure: as §3, §4, §5, §6, §7

[14] = system: amphetamine-induced hyperactivity in mice; experiment: Amphetamine-induced hyperactivity (AIH); type: in vivo, mouse; settings: intracerebroventricular injection, vs vehicle
GSK3α [15] = target: T2, GSK3α; settings: read-out: IC50 (μM), GSK3α
GSK3β [16] = target: T1, GSK3β; remark: listed apart in the source
GSK3β [17] = target: T1, GSK3β; settings: read-out: IC50 (μM), GSK3β

T1 sequence (P49841 whole entry): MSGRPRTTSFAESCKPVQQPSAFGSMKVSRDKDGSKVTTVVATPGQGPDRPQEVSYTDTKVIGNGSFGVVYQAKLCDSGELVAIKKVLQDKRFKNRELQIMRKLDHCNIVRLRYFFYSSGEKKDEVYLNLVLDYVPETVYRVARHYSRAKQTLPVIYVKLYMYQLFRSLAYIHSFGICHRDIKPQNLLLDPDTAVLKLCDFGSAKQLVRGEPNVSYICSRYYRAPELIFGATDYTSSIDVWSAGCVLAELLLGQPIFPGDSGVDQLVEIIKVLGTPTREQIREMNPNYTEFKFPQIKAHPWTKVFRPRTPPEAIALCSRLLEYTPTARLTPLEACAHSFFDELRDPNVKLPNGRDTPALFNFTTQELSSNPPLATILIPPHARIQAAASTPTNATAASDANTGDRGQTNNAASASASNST

Structure (SMILES): COc1ccccc1[C@@H]1C2=C(CC(C)(C)CC2=O)Nc2n[nH]c(C(F)(F)F)c21 [Compound 54, (R)-4-(2-methoxyphenyl)-7,7-dimethyl-3-(trifluoromethyl)-6,7,8,9-tetrahydro-2H-pyrazolo[3,4-b]quinolin-5(4H)-one]
IC50 (GSK3β [1]): < 0.1 µM | IC50 (GSK3β [1]; IC50 ADP Glo GSK3β (μM)): 0.02 µM | IC50 (GSK3β [1]; IC50 against GSK3β at 7 μM ATP): 0.024 µM | IC50 (GSK3β [1]; IC50 against GSK3β at 100 μM ATP): 0.143 µM | IC50 (GSK3β [1]; Target IC50 (nM), GSK3β): 0.024 µM | % of the kinome (311 kinases) inhibited (panel of 311 kinases): 2.6% | Plasma stability % remaining (in mice) [2]: 99% | IC50 [3]: 1.03 µM | inhibition at 10 µM (CDK2/CycE1): 73.5% | stability in glutathione (GSH), % remaining (GSH stability): 99% | IC50 (GSK3α [4]): 13 nM | IC50 (GSK3β [5]): < 100 nM | EC50 ([6]; Homo sapiens, U2OS, read-out: beta-Catenin Translocation (μM)): 5.28 µM | EC50 ([6]; read-out: beta-Catenin translocation EC50): 6.97 µM | inhibition at 10 µM (CDK2/CycA2): 78.7% | fraction unbound at 5 h, 5 µM (in vitro): 0.09 | cellular toxicity in SH-SY5Y cells (SH-SY5Y cells): no cellular toxicity | EC50 [7]: 5350 nM | EC50 ([8]; read-out: TCF/LEF (μM)): 4.8 µM | EC50 ([8]; read-out: TCF/LEF EC50 (μM)): 5 µM | Plasma protein binding % bound, human plasma [9]: 93% | fraction unbound at 5 h, 5 µM ([9]; human, pH 7.4, read-out: Plasma protein binding % bound, human plasma (converted)): 0.07 | Microsomal Stability (M:) [10]: M: 0% | IC50 (GSK3α [11]): < 100 nM | solubility at 24 h (physchem): 85 µM (≈ 33.3 µg/mL) | stability in PBS, % still present (PBS stability): more than 95% | IC50 (GSK3β [12]): 12 nM | IC50 (GSK3β [13]; read-out: IC50 ADP Glo GSK3β): 20 nM

% Inhibition at 10 μM, LIMK1 (LIMK1): 78.9% | % Inhibition at 10 μM, LIMK1 (LIMK1; listed as CHIR 99021): greater than 50% | % Inhibition at 10 μM, CDK9 (CDK9): 88.1% | % Inhibition at 10 μM, CDK9 (CDK9; listed as CHIR 99021): greater than 50% | % Inhibition at 10 μM, Erk5 (Erk5): 61.3% | % Inhibition at 10 μM, PLK1 (PLK1): 59.2% | Microsomal Stability (M:) [10]: M: 4% | % Inhibition at 10 μM, CDK5 (CDK5; 10 μM): 51.2%
Structure (SMILES): Cc1c[nH]c(-c2cnc(NCCNc3ccc(C#N)cn3)nc2-c2ccc(Cl)cc2Cl)n1 [CHIR99021]
number of kinases inhibited greater than 50% at 10 μM (panel of 311 kinases; 10 μM, 311 kinases): 21 kinases | EC50 ([8]; read-out: TCF/LEF (μM)): 6 µM

Structure (SMILES): COc1ccccc1[C@@H]1C2=C(CC(C)(C)CC2=O)Nc2n[nH]c(C)c21 [Compound 22]
effect on amphetamine-induced hyperactivity, ICV injection [14]: attenuate amphetamine-induced hyperactivity | IC50 (GSK3α [15]): 0.027 µM | mode of inhibition (Lineweaver-Burk plot) (GSK3β [16]): competitive inhibition | IC50 (GSK3β [17]): 0.061 µM | IC50 (GSK3α [11]): < 100 nM | IC50 (CDK5; dose response): 1.4 µM | IC50 (GSK3β [13]): < 100 nM
